According to PubChem BioAssay (NCI):
Several values for one entry are separate records, joined by “and”; a condition that tells them apart may be missing. Identical values can stand only once.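 Growth conditions: 96-well plates. Treatment: test compound, 48 hours, 5 concentrations. Analysis: linear interpolation between bracketing concentrations; unreached endpoints set to highest concentration. GI50 is the concentration that inhibits growth by half. TGI: concentration producing complete growth inhibition.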

Legend:
Assay in all cases: NCI anticancer screen, dose series, 48 h
ACHN renal = test system: ACHN renal
DU-145 prostate = test system: DU-145 prostate
OVCAR-5 ovarian = test system: OVCAR-5 ovarian
HS 578T breast = test system: HS 578T breast
UACC-62 melanoma = test system: UACC-62 melanoma
HCT-15 colon = test system: HCT-15 colon
MDA-MB-231 breast = test system: MDA-MB-231 breast
A498 renal = test system: A498 renal
NCI-H226 lung = test system: NCI-H226 lung
NCI-H460 lung = test system: NCI-H460 lung
BT-549 breast = test system: BT-549 breast
HOP-18 NSCLC = test system: HOP-18 NSCLC
SK-MEL-2 melanoma = test system: SK-MEL-2 melanoma
SF-539 CNS = test system: SF-539 CNS
SF-295 CNS = test system: SF-295 CNS
SK-MEL-28 melanoma = test system: SK-MEL-28 melanoma
A549 NSCLC = test system: A549 NSCLC
RXF 393 renal = test system: RXF 393 renal
IGROV1 ovarian = test system: IGROV1 ovarian
MALME-3M melanoma = test system: MALME-3M melanoma
MDA-MB-435 = test system: MDA-MB-435
MDA-N = test system: MDA-N
SNB-19 CNS = test system: SNB-19 CNS
SR leukemia = test system: SR leukemia
COLO 205 colon = test system: COLO 205 colon
U251 CNS = test system: U251 CNS
SNB-75 CNS = test system: SNB-75 CNS
CCRF-CEM leukemia = test system: CCRF-CEM leukemia
RXF-631 renal = test system: RXF-631 renal
EKVX NSCLC = test system: EKVX NSCLC
SK-OV-3 ovarian = test system: SK-OV-3 ovarian
HOP-92 NSCLC = test system: HOP-92 NSCLC
SNB-78 CNS = test system: SNB-78 CNS
HCC-2998 colon = test system: HCC-2998 colon
MOLT-4 leukemia = test system: MOLT-4 leukemia
CAKI-1 renal = test system: CAKI-1 renal
T-47D breast = test system: T-47D breast
UACC-257 melanoma = test system: UACC-257 melanoma
HOP-62 NSCLC = test system: HOP-62 NSCLC
HL-60(TB) leukemia = test system: HL-60(TB) leukemia
NCI-H522 lung = test system: NCI-H522 lung
LOX IMVI melanoma = test system: LOX IMVI melanoma
HCT-116 colon = test system: HCT-116 colon
SK-MEL-5 melanoma = test system: SK-MEL-5 melanoma
UO-31 renal = test system: UO-31 renal
NCI-H23 lung = test system: NCI-H23 lung
SW-620 colon = test system: SW-620 colon
HT29 colon = test system: HT29 colon
TK-10 renal = test system: TK-10 renal
OVCAR-8 ovarian = test system: OVCAR-8 ovarian
DLD-1 colon = test system: DLD-1 colon
OVCAR-3 ovarian = test system: OVCAR-3 ovarian
M19-MEL melanoma = test system: M19-MEL melanoma
DMS 114 small cell lung = test system: DMS 114 small cell lung
786-0 renal = test system: 786-0 renal
SF-268 CNS = test system: SF-268 CNS
M14 melanoma = test system: M14 melanoma
DMS 273 small cell lung = test system: DMS 273 small cell lung
KM12 colon = test system: KM12 colon
SN12C renal = test system: SN12C renal
OVCAR-4 ovarian = test system: OVCAR-4 ovarian
K-562 leukemia = test system: K-562 leukemia

For `Cc1cc2c(c3oc(C(O)(CO)C4CO4)cc(=O)c13)C(=O)c1c(O)cccc1C2=O` (configuration not stated), the TGI (ACHN renal) was 5.24 nM, the TGI (DU-145 prostate) was 2.49 nM and 1.08 nM and the TGI (OVCAR-5 ovarian) was 7.91 nM and 3.28 nM and 4.1 nM. It also gave a GI50 (HS 578T breast) of 0.702 nM, a TGI (HS 578T breast) of 7.8 nM and a TGI (UACC-62 melanoma) of 2.93 nM. For the same compound, the TGI (HCT-15 colon) was 1.52 nM, the TGI (MDA-MB-231 breast) was 8.43 nM and 4.11 nM and the GI50 (A498 renal) was 3.75 nM. It also gave a TGI (A498 renal) of 4.03 nM, a TGI (NCI-H226 lung) of 2.09 nM and a TGI (NCI-H460 lung) of 0.12 nM. It also gave a TGI (BT-549 breast) of 0.438 nM, a TGI (HOP-18 NSCLC) of 35.8 nM and a TGI (SK-MEL-2 melanoma) of 4.15 nM. It also gave a TGI (SF-539 CNS) of 0.212 nM, a TGI (SF-295 CNS) of 0.94 nM and a GI50 (SK-MEL-28 melanoma) of 3.75 nM. The TGI (SK-MEL-28 melanoma) was 9.5 nM and 8.24 nM and 38.2 nM, the TGI (A549 NSCLC) was 13.9 nM and 21.3 nM and 60.6 nM and the TGI (RXF 393 renal) was 2.54 nM. For the same compound, the TGI (IGROV1 ovarian) was 1.9 nM and 2.94 nM, the TGI (MALME-3M melanoma) was 5.27 nM and 2.31 nM and 15.2 nM and the TGI (MDA-MB-435) was 5.2 nM. The GI50 (MDA-N) was 3.75 nM, the TGI (MDA-N) was 4.43 nM and 5.15 nM and the GI50 (SNB-19 CNS) was 0.231 nM. The TGI (SNB-19 CNS) was 4.42 nM and 4.94 nM, the TGI (SR leukemia) was 2.27 nM and the GI50 (COLO 205 colon) was 0.1 nM. For the same compound, the TGI (COLO 205 colon) was 1.15 nM, the TGI (U251 CNS) was 4.11 nM and the TGI (SNB-75 CNS) was 3.95 nM and 0.596 nM. For the same compound, the TGI (CCRF-CEM leukemia) was 0.111 nM, the TGI (RXF-631 renal) was > 100000 nM and the TGI (EKVX NSCLC) was 17.1 nM and 37.8 nM. The TGI (SK-OV-3 ovarian) was 6.71 nM and 1.73 nM, the TGI (HOP-92 NSCLC) was 0.983 nM and the TGI (SNB-78 CNS) was > 100000 nM. For the same compound, the GI50 (HCC-2998 colon) was 0.169 nM, the TGI (HCC-2998 colon) was 7.27 nM and 3.65 nM and 11.2 nM and the GI50 (MOLT-4 leukemia) was > 37500 nM. For the same compound, the TGI (MOLT-4 leukemia) was > 37500 nM, the TGI (CAKI-1 renal) was 3.6 nM and the GI50 (T-47D breast) was 3.75 nM. The TGI (T-47D breast) was 6.83 nM and 2.32 nM and 14.6 nM, the TGI (UACC-257 melanoma) was 40.4 nM and the TGI (HOP-62 NSCLC) was 9.89 nM and 3.53 nM. For the same compound, the TGI (HL-60(TB) leukemia) was 3.97 nM and the TGI (NCI-H522 lung) was 3.23 nM.

In the case of `Cc1ccc(NS(=O)(=O)c2cc(C(C)(C)C)ccc2OCCOCCOCCOc2ccc(C(C)(C)C)cc2S(=O)(=O)Nc2ccc(C)cc2)cc1`, the TGI (LOX IMVI melanoma) is reported as > 100000 nM, the TGI (ACHN renal) is reported as > 100000 nM and the TGI (OVCAR-5 ovarian) is reported as > 100000 nM. The TGI (UACC-62 melanoma) was > 100000 nM, the TGI (HCT-15 colon) was > 100000 nM and the TGI (HCT-116 colon) was > 100000 nM. For the same compound, the TGI (A498 renal) was > 100000 nM, the TGI (NCI-H226 lung) was > 100000 nM and the TGI (SK-MEL-5 melanoma) was > 100000 nM. For the same compound, the TGI (NCI-H460 lung) was > 100000 nM, the TGI (HOP-18 NSCLC) was > 100000 nM and the TGI (SK-MEL-2 melanoma) was > 100000 nM. For the same compound, the TGI (SF-539 CNS) was > 100000 nM, the TGI (SF-295 CNS) was > 100000 nM and the TGI (SK-MEL-28 melanoma) was > 100000 nM. The TGI (UO-31 renal) was > 100000 nM, the TGI (NCI-H23 lung) was > 100000 nM and the TGI (SW-620 colon) was > 100000 nM. For the same compound, the TGI (A549 NSCLC) was > 100000 nM, the TGI (RXF 393 renal) was > 100000 nM and the TGI (IGROV1 ovarian) was > 100000 nM. For the same compound, the TGI (MALME-3M melanoma) was > 100000 nM, the TGI (HT29 colon) was > 100000 nM and the TGI (TK-10 renal) was > 100000 nM. For the same compound, the TGI (OVCAR-8 ovarian) was > 100000 nM, the TGI (DLD-1 colon) was > 100000 nM and the TGI (OVCAR-3 ovarian) was > 100000 nM. The TGI (M19-MEL melanoma) was > 100000 nM, the TGI (SNB-19 CNS) was > 100000 nM and the TGI (DMS 114 small cell lung) was > 100000 nM. For the same compound, the TGI (786-0 renal) was > 100000 nM, the TGI (COLO 205 colon) was > 100000 nM and the TGI (U251 CNS) was > 100000 nM. For the same compound, the TGI (SNB-75 CNS) was > 100000 nM, the TGI (CCRF-CEM leukemia) was > 100000 nM and the TGI (EKVX NSCLC) was > 100000 nM. The TGI (SK-OV-3 ovarian) was > 100000 nM, the TGI (HOP-92 NSCLC) was > 100000 nM and the TGI (SNB-78 CNS) was > 100000 nM. For the same compound, the TGI (HCC-2998 colon) was > 100000 nM, the TGI (SF-268 CNS) was > 100000 nM and the TGI (MOLT-4 leukemia) was > 100000 nM. For the same compound, the TGI (CAKI-1 renal) was > 100000 nM, the TGI (M14 melanoma) was > 100000 nM and the TGI (DMS 273 small cell lung) was > 100000 nM. The TGI (KM12 colon) was > 100000 nM, the TGI (UACC-257 melanoma) was > 100000 nM and the TGI (HOP-62 NSCLC) was > 100000 nM. The TGI (HL-60(TB) leukemia) was > 100000 nM, the TGI (SN12C renal) was > 100000 nM and the TGI (OVCAR-4 ovarian) was > 100000 nM. The TGI (K-562 leukemia) was > 100000 nM.
